In US7026281B1, “Antagonistic analogs of GH-RH inhibiting IGF-I and -II” (The Administrators of the Tulane Educational Fund, priority 1998, dated 2006):
Square brackets hold non-standard residues; d marks the D form. Peptide text beside a SMILES is read from it. * marks the point of attachment. Phe(4-Cl) = N[C@@H](Cc1ccc(Cl)cc1)C(=O)O; hArg = N=C(N)NCCCC[C@H](N)C(=O)O; Nle = CCCC[C@H](N)C(=O)O; Abu = CC[C@H](N)C(=O)O; PhAc = O=C(Cc1ccccc1)*

Key:
[1] = test system: hGH-RH(1–29)NH2 induced GH release; test: Inhibition of GH release in superfused rat pituitary system; assay type: cell-based; conditions: antagonist 30 nM; for Inhibition of GH release (%) 30 min: 1 nM hGH-RH(1–29)NH2 30 min later; for Inhibition of GH release (%) 60 min: 1 nM hGH-RH(1–29)NH2 60 min later; for Inhibition of GH release (%) 90 min: 1 nM hGH-RH(1–29)NH2 90 min later; for Inhibition of GH release (%) 120 min: 1 nM hGH-RH(1–29)NH2 120 min later; for Inhibition of GH release (%) 0 min: 1 nM hGH-RH(1–29)NH2 at 0 min
Procedure: Superfused Rat Pituitary System.
The analogs were tested in vitro in a test described earlier (S. Vigh and A. V. Schally, Peptides 5:241–347, 1984) with modification (Z. Rekasi and A. V. Schally, P.N.A.S. 90:2146–2149, 1993).
Briefly, the cells are preincubated with peptides for 9 minutes (3 mL) at various concentrations. Immediately after the incubation, 1 nM hGH-RH(1–29)NH2 is administered for 3 minutes (1 mL) [0 minute response]. To check the duration of the antagonistic effect of the analogue, 1 nM hGH-RH(1–29)NH2 is applied 30, 60, 90, and 120 minutes later for 3 minutes [30, 60, 90, 120 min responses]. Net integral values of the GH responses are evaluated. GH responses are compared to and expressed as percent of the original GH response induced by 1 nM GH-RH(1–29)NH2. The effect of the new antagonists are compared to that of [Ac-Tyr^1,D-Arg^2]hGH-RH(1–29)NH2, the “Standard antagonist”.
Growth Hormone Radio-immunoassay.
Rat GH levels in aliquots of undiluted and diluted superfusion samples were measured by double-antibody radioimmunoassay using materials supplied by the National Hormone and Pituitary Program, Baltimore, Md. The results of RIA were analyzed with a computer program developed in our institute (V. Csernus and A. V. Schally, in Neuroendocrine Research Methods, Harwood Academic (Greenstein, B. D. ed., London, pp. 71–109, 1991), hereby incorporated by reference. Inter-assay variation was less than 15% and intra-assay variation was less than 10%.

[2] = target: T1, rat pituitary GH-RH receptors (Rattus norvegicus, UniProt Q02644); test: GH-RH radioreceptor binding assay, rat anterior pituitary membrane homogenates; conditions: for Ki: competition with [His1,125I-Tyr10,Nle27]hGH-RH(1–32)NH2; for R.A. (relative affinity compared to Standard antagonist): ratio of Ki values
T1 construct: from tissue; host or cells: anterior pituitary of male Sprague-Dawley rats, crude membrane homogenates
T1 sequence (Q02644 23-464): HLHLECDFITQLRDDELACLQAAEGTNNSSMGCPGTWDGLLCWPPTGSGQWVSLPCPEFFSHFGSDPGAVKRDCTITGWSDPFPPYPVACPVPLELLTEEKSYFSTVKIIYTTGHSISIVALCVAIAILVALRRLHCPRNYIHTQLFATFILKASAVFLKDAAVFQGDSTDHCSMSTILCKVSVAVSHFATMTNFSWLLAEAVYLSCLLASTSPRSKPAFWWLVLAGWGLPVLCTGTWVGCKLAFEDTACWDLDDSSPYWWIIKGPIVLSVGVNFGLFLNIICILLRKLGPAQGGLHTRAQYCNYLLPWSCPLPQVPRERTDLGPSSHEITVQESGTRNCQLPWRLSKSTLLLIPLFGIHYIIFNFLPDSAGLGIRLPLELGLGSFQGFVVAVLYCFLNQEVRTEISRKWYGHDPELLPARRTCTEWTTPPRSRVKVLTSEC
Procedure: GH-RH Binding Assay. A sensitive radioreceptor binding assay was developed to determine the binding characteristics of the antagonists of GH-RH (G. Halmos, A. V. Schally et al., Receptor 3, 87–97, 1993), hereby incorporated by reference. The assay is based on binding of labelled [His^1,Nle^27]hGH-RH(1–32)NH2 to rat anterior pituitary membrane homogenates. Iodinated derivatives of [His^1,Nle^27]hGH-RH(1–32)NH2 are prepared by the chloramine-T method (F. C. Greenwood et al., Biochemistry 89:114–123, 1963), hereby incorporated by reference. Pituitaries from male Sprague-Dawley rats (250–300 g) are used to prepare crude membranes. For saturation binding analyses, membrane homogenates are incubated with at least 6 concentrations of [His^1,^125I-Tyr^10,Nle^27]hGH-RH(1–32) NH2, ranging from 0.005 to 0.35 nM in the presence or absence of excess unlabelled peptide (1 μM).
The pellet is counted for radioactivity in a γ-counter. The affinities of the antagonist peptides tested to rat pituitary GH-RH receptors are determined in competitive binding experiments. The final binding affinities are estimated by Ki (dissociation constant of the inhibitor-receptor complex) and are determined by the Ligand PC and McPherson computer programs of Munson and Rodbard (P. J. Munson and D. Rodbard, Anal. Biochem. 107. 220–239, 1980). Relative affinities compared to [Ac-Tyr^1,D-Arg^2]hGH-RH(1–29)NH2, the Standard antagonist, are calculated as the […].

[3] = test system: GH release stimulated by hGH-RH(1–29)NH2; test: In vivo inhibition of serum GH response in rats; set-up: species or system rat; conditions: for Inhibition of the GH release stimulated by hGH-RH(1–29)NH2 (in words): 80 μg/kg i.v., rats
Procedure: GH-RH antagonistic effect of the analogs was tested on young male Sprague-Dawley rats (200–250 g). In each experiment, 5 groups of 7 animals each were used. The compounds (80 μg/kg) and GH-RH(1–29)NH2 (3 μg/kg) were dissolved in 5.5% mannitol and given intravenously to the jugular vein of the rats under Nembutal anesthesia. The time elapsed between the administrations of the antagonist and GH-RH varied between groups, according to the following schedule. The first group of animals received GH-RH injection 5 min after the administration of the antagonist; for the second, third and fourth group of animals, the time interval elapsed between the injection of the antagonist and that of GH-RH was 15, 30, and 60 min, respectively. The control group was first injected with the solvent alone instead of the antagonist, followed by a GH-RH injection 5 min later.
0.4 mL blood samples were taken for GH RIA before the administration of the antagonist (“blood0”), and 5 min after the injection of GH-RH (“blood1”). The GH response in each group was calculated as rGH=(GHblood1/GHblood0), mean±S.E.M. of the individual differences. Relative inhibition of GH response (%) in each group treated was calculated as […].

[4] = antagonist 80 μg/kg i.v. 5 min before GH-RH
[5] = antagonist 80 μg/kg i.v. 15 min before GH-RH
[6] = antagonist 80 μg/kg i.v. 15 min before GH-RH 3 μg/kg
[7] = antagonist 80 μg/kg i.v. 30 min before GH-RH
[8] = antagonist 80 μg/kg i.v. 30 min before GH-RH 3 μg/kg
[9] = antagonist 80 μg/kg i.v. 60 min before GH-RH
[10] = antagonist 80 μg/kg i.v. 60 min before GH-RH 3 μg/kg
[11] = rGH=GHblood1/GHblood0, antagonist 80 μg/kg i.v. 5 min before GH-RH 3 μg/kg

SMILES	Inhibition of GH release (%) 30 min [1]	Inhibition of GH release (%) 60 min [1]	Inhibition of GH release (%) 90 min [1]	Inhibition of GH release (%) 120 min [1]	Inhibition of GH release (%) 0 min [1]	Ki [2]	R.A. (relative affinity compared to Standard antagonist) [2]	Inhibition of the GH release stimulated by hGH-RH(1–29)NH2 (in words) [3]	Relative inhibition % of GH response [3, 4]	Relative inhibition % of GH response [3, 5]	GH response mean ± S.E.M. [3, 6]	Relative inhibition % of GH response [3, 7]	GH response mean ± S.E.M. [3, 8]	Relative inhibition % of GH response [3, 9]	GH response mean ± S.E.M. [3, 10]	GH response mean ± S.E.M. [3, 11]
CCCC[C@H](NC(=O)[C@@H](NC(=O)[C@H](CC(=O)O)NC(=O)[C@H](CCC(N)=O)NC(=O)[C@H](CC(C)C)NC(=O)[C@H](CC(C)C)NC(=O)[C@H](CCCCN)NC(=O)[C@H](CCCNC(=N)N)NC(=O)[C@H](C)NC(=O)[C@H](CO)NC(=O)[C@H](CC(C)C)NC(=O)[C@H](CCC(N)=O)NC(=O)[C@H](CC)NC(=O)[C@H](CC(C)C)NC(=O)[C@@H](NC(=O)[C@H](CCCCN)NC(=O)[C@H](CCCNC(=N)N)NC(=O)[C@H](Cc1ccc(O)cc1)NC(=O)[C@H](CCCCNC(=N)N)NC(=O)[C@H](CC(N)=O)NC(=O)[C@@H](NC(=O)[C@H](Cc1ccc(Cl)cc1)NC(=O)[C@@H](NC(=O)[C@H](C)NC(=O)[C@H](CC(=O)O)NC(=O)[C@@H](CCCNC(=N)N)NC(=O)[C@H](Cc1ccc(O)cc1)NC(=O)Cc1ccccc1)[C@@H](C)CC)[C@@H](C)O)C(C)C)[C@@H](C)CC)C(=O)N[C@H](CCCNC(=N)N)C(=O)N[C@@H](CCCCNC(=N)N)C(N)=O [Peptide 4, [PhAc^0, D-Arg^2, Phe(pCl)^6, Har^9, Abu^15, Nle^27, D-Arg^28, Har^29]hGH-RH(1–29)NH2] (PhAc-Y[dR]DAI[Phe(4-Cl)]TN[hArg]YRKVL[Abu]QLSARKLLQDI[Nle][dR][hArg]-NH2)	86%	80%	79%	68%	83%	0.087 nM	34	strong and long-lasting inhibition	82%	43%	7.73 ± 1.12	7%	12.00 ± 2.54	8%	11.88 ± 0.90	3.08 ± 0.58
CCCC[C@H](NC(=O)[C@@H](NC(=O)[C@H](CC(=O)O)NC(=O)[C@H](CCC(N)=O)NC(=O)[C@H](CC(C)C)NC(=O)[C@H](CC(C)C)NC(=O)[C@H](CCCCN)NC(=O)[C@H](CCCNC(=N)N)NC(=O)[C@H](C)NC(=O)[C@H](CO)NC(=O)[C@H](CC(C)C)NC(=O)[C@H](CCC(N)=O)NC(=O)[C@H](CC)NC(=O)[C@H](CC(C)C)NC(=O)[C@@H](NC(=O)[C@H](CCCCN)NC(=O)[C@H](CCCNC(=N)N)NC(=O)[C@H](Cc1ccc(OC)cc1)NC(=O)[C@H](CO)NC(=O)[C@H](CC(N)=O)NC(=O)[C@@H](NC(=O)[C@H](Cc1ccc(Cl)cc1)NC(=O)[C@@H](NC(=O)[C@H](C)NC(=O)[C@H](CC(=O)O)NC(=O)[C@@H](CCCNC(=N)N)NC(=O)[C@H](Cc1ccc(O)cc1)NC(=O)Cc1ccccc1)[C@@H](C)CC)[C@@H](C)O)C(C)C)[C@@H](C)CC)C(=O)N[C@@H](CO)C(=O)N[C@H](CCCNC(=N)N)C(N)=O [Peptide 16, [PhAc^0, D-Arg^2, Phe(pCl)^6, Tyr(Me)^10, Abu^15, Nle^27, D-Arg^29]hGH-RH(1–29)NH2] (PhAc-Y[dR]DAI[Phe(4-Cl)]TNSY(Me)RKVL[Abu]QLSARKLLQDI[Nle]S[dR]-NH2)	87%	83%	56%	65%	65%	0.07 nM	42	strong and long-lasting inhibition	77%	70%	3.44 ± 0.62	48%	5.24 ± 1.36	0%	9.19 ± 1.89	2.89 ± 0.65
